Laboratory results from patent US12390437B2, “Itaconic acid derivatives and uses thereof intreating an inflammatory disease or a disease associated with an undesirable immune response” (Sitryx Therapeutics Limited, priority 2019, dated 2025).
pEC50: −log10 of the molar value. Structures can show the parent of a compound that is named as a salt. Where two headings read alike, the source gives them in different places.

Columns and labels:
NRF2 = NRF2 +/-GSH activation assay (DiscoverX PathHunter NRF2 translocation kit, U2OS cells); format: cell-based; settings: Homo sapiens
How it was run: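 PathHunter U2OS cells, plated 24 hrs, measured NRF2 nuclear translocation by enzyme-fragment complementation luminescence after 6 hours compound exposure at 37 °C. For +GSH, compound was pre-incubated 30 minutes with GSH (6 mM working stock). EC50 from % activation normalised to dimethyl fumarate high control.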

hepatocytes [1] = test: Hepatocyte stability assay (human); format: in vitro ADME; settings: 10 μM compound, 0.5×10^6 cells/mL, 60 minutes
From the text: (§1) Defrosted cryo-preserved hepatocytes (viability >70%) are used to determine the metabolic stability of a compound via calculation of intrinsic clearance (Clint; a measure of the removal of a compound from the liver in the absence of blood flow and cell binding). Clearance data are particularly important for in vitro work as they can be used in combination with in vivo data to predict the half-life and oral bioavailability of a drug.
(§2) The metabolic stability in hepatocytes assay involves a time-dependent reaction using both positive and negative controls. The cells must be pre-incubated at 37° C. then spiked with test compound (and positive control); samples taken at pre-determined time intervals are analysed to monitor the change in concentration of the initial drug compound over 60 minutes. A buffer incubation reaction (with no hepatocytes present) acts as a negative control and two cocktail solutions, containing compounds with known high and low clearance values (verapamil/7-hydroxycoumarin and propranolol/diltiazem), act as positive controls. • 1. The assay is run with a cell concentration of 0.5×10^6 cells/mL in Leibovitz buffer. • 2. All compounds and controls are run in duplicate. • 3. Compound concentration is 10 μM. • 4. All compounds and controls are incubated with both cells and buffer to show turnover is due to hepatic metabolism. • 5. All wells on the incubation plate will have 326.7 μL of either cells or buffer added. • 6. Prior to assay, cell and buffer-only incubation plates are preincubated for 10 mins at 37° C. • 7. The assay is initiated by adding compounds, 3.3 μL of 1 mM in 10% DMSO-90% Buffer; final DMSO concentration is 0.1%. • 8. Samples are taken at regular timepoints (0, 5, 10, 20, 40, 60 min) until 60 mins. • 9. Sample volume is 40 μL and it is added to 160 μL of crash solvent (acetonitrile with internal standard) and stored on ice. • 10. At the end of the assay, the crash plates are centrifuged at 3500 rpm for 20 mins at 4° C. • 11. 80 μL of clear supernatant is removed and mixed with 80 μL of deionised water before being analysed by LC-MS/MS.
(§3) Raw LC-MS/MS data are exported to, and analysed in, Microsoft Excel for determination of intrinsic clearance. The percentage remaining of a compound is monitored using the peak area of the initial concentration as 100%. Intrinsic clearance and half-life values are calculated using a graph of the natural log of percentage remaining versus the time of reaction in minutes. Half-life (min) and intrinsic clearance (Clint in μL min^−1 10^−6 cells) values are calculated using the gradient of the graph (the elimination rate constant, k) and Equations 1 and 2.

[2] = Hepatocyte stability assay (human); format: in vitro ADME; settings: cryopreserved hepatocytes, 10 μM compound, 0.5×10^6 cells/mL, 60 minutes, read-out: T½
From the text: as §1, §2, §3

hepatocytes [3] = test: Hepatocyte stability assay (mouse); format: in vitro ADME; settings: 10 μM compound, 0.5×10^6 cells/mL, 60 minutes
From the text: as §1, §2, §3

[4] = Hepatocyte stability assay (mouse); format: in vitro ADME; settings: cryopreserved hepatocytes, 10 μM compound, 0.5×10^6 cells/mL, 60 minutes, read-out: T½
From the text: as §1, §2, §3

[5] = U2OS, normalised to dimethyl fumarate 'High' control, GSH condition not stated in Table 5, read-out: NRF2 activation Emax
[6] = U2OS PathHunter cells, 6 hours, GSH condition not stated in Table 5, read-out: NRF2 activation EC50
[7] = U2OS, Table 10, assay of Biological Example 5 (NRF2), read-out: EC50
[8] = U2OS, Table 10, assay of Biological Example 5 (NRF2), read-out: Emax

Structure (SMILES): C=C(CC(=O)OCCCCCCCC)C(=O)OCCC#N [Example 1, 1-(2-cyanoethyl) 4-octyl 2-methylenesuccinate]
- Emax (NRF2; [5]): 134%
- pEC50 (NRF2; [6]): 5.06

Structure (SMILES): C=C(CC(=O)OCCCCCCCC)C(=O)OCCS(C)(=O)=O [Example 2, 1-(2-(methylsulfonyl)ethyl) 4-octyl 2-methylenesuccinate]
- Emax (NRF2; [5]): 268%
- pEC50 (NRF2; [6]): 5.29

Structure (SMILES): C=C(CC(=O)OCCCCCCCC)C(=O)OC1COC1 [Example 4, 4-octyl 1-(oxetan-3-yl) 2-methylenesuccinate]
- Emax (NRF2; [5]): 181%
- pEC50 (NRF2; [6]): 5.08

Structure (SMILES): C=C(CC(=O)OCCCCCCCC)C(=O)OCC(=O)O [Example 49, 2-((2-methylene-4-(octyloxy)-4-oxobutanoyl)oxy)acetic acid]
- Emax (NRF2; [5]): 232%
- pEC50 (NRF2; [6]): 4.80
- CIint (μL min^−1 10^−6 cells) (hepatocytes [1]): 109 μL min^−1 10^−6 cells
- half-life at 10 μM [2]: 13 min
- CIint (μL min^−1 10^−6 cells) (hepatocytes [3]): 138 μL min^−1 10^−6 cells
- half-life at 10 μM [4]: 10 min

Structure (SMILES): C=C(CC(=O)OCCCCCCCC)C(=O)OCCC(=O)O [Example 80, 3-((2-methylene-4-(octyloxy)-4-oxobutanoyl)oxy)propanoic Acid]
- Emax (NRF2; [5]): 229%
- pEC50 (NRF2; [6]): 4.67
- CIint (μL min^−1 10^−6 cells) (hepatocytes [1]): 243 μL min^−1 10^−6 cells
- half-life at 10 μM [2]: 6 min
- CIint (μL min^−1 10^−6 cells) (hepatocytes [3]): 158 μL min^−1 10^−6 cells
- half-life at 10 μM [4]: 9 min

Structure (SMILES): C=C(CC(=O)OC1CCCCCCC1)C(=O)OCCC(=O)O [Example 82, 3-((4-(cyclooctyloxy)-2-methylene-4-oxobutanoyl)oxy)propanoic acid]
- Emax (NRF2; [5]): 164%
- pEC50 (NRF2; [6]): 4.58
- CIint (μL min^−1 10^−6 cells) (hepatocytes [1]): 15 μL min^−1 10^−6 cells
- half-life at 10 μM [2]: 91 min
- CIint (μL min^−1 10^−6 cells) (hepatocytes [3]): 52 μL min^−1 10^−6 cells
- half-life at 10 μM [4]: 27 min

Structure (SMILES): C=C(CC(=O)O[C@@H](C)CCCCCC)C(=O)OCCC(=O)O [Example 84, (S)-3-((2-methylene-4-(octan-2-yloxy)-4-oxobutanoyl)oxy)propanoic acid]
- Emax (NRF2; [5]): 185%
- pEC50 (NRF2; [6]): 5.20
- CIint (μL min^−1 10^−6 cells) (hepatocytes [1]): 86 μL min^−1 10^−6 cells
- half-life at 10 μM [2]: 16 min
- CIint (μL min^−1 10^−6 cells) (hepatocytes [3]): 220 μL min^−1 10^−6 cells
- half-life at 10 μM [4]: 6 min

Structure (SMILES): C=C(CC(=O)OCCCOc1ccccc1)C(=O)OCCC(=O)O [Example 86, 3-((2-methylene-4-oxo-4-(3-phenoxypropoxy)butanoyl)oxy)propanoic acid]
- Emax (NRF2; [5]): 91%
- pEC50 (NRF2; [6]): 4.68
- CIint (μL min^−1 10^−6 cells) (hepatocytes [1]): 44 μL min^−1 10^−6 cells
- half-life at 10 μM [2]: 31 min

Structure (SMILES): C=C(CC(=O)OC1CCCCC1)C(=O)OCCC(=O)O [Example 87, 3-((4-(cyclohexyloxy)-2-methylene-4-oxobutanoyl)oxy)propanoic acid]
- Emax (NRF2; [5]): 113%
- pEC50 (NRF2; [6]): 4.47
- CIint (μL min^−1 10^−6 cells) (hepatocytes [1]): 11 μL min^−1 10^−6 cells
- half-life at 10 μM [2]: 136 min
- CIint (μL min^−1 10^−6 cells) (hepatocytes [3]): 21 μL min^−1 10^−6 cells
- half-life at 10 μM [4]: 65 min

Structure (SMILES): C=C(CC(=O)O[C@H](C)CCCCCC)C(=O)OCCC(=O)O [Example 88, (R)-3-((2-methylene-4-(octan-2-yloxy)-4-oxobutanoyl)oxy)propanoic acid]
- Emax (NRF2; [5]): 139%
- pEC50 (NRF2; [6]): 5.49
- CIint (μL min^−1 10^−6 cells) (hepatocytes [1]): 134 μL min^−1 10^−6 cells
- half-life at 10 μM [2]: 13 min
- CIint (μL min^−1 10^−6 cells) (hepatocytes [3]): 297 μL min^−1 10^−6 cells
- half-life at 10 μM [4]: 7 min

Structure (SMILES): C=C(CC(=O)O[C@@H](C)CCCCCC)C(=O)OCC(=O)O [Example 89, (S)-2-((2-methylene-4-(octan-2-yloxy)-4-oxobutanoyl)oxy)acetic acid]
- Emax (NRF2; [5]): 238%
- pEC50 (NRF2; [6]): 4.65
- CIint (μL min^−1 10^−6 cells) (hepatocytes [1]): 29 μL min^−1 10^−6 cells
- half-life at 10 μM [2]: 49 min
- CIint (μL min^−1 10^−6 cells) (hepatocytes [3]): 198 μL min^−1 10^−6 cells
- half-life at 10 μM [4]: 13 min

Structure (SMILES): C=C(CC(=O)OC1CCCCCCC1)C(=O)OCC(=O)O [Example 90, 2-((4-(cyclooctyloxy)-2-methylene-4-oxobutanoyl)oxy)acetic acid]
- Emax (NRF2; [5]): 157%
- pEC50 (NRF2; [6]): 4.53
- CIint (μL min^−1 10^−6 cells) (hepatocytes [1]): 8 μL min^−1 10^−6 cells
- half-life at 10 μM [2]: 183 min
- CIint (μL min^−1 10^−6 cells) (hepatocytes [3]): 47 μL min^−1 10^−6 cells
- half-life at 10 μM [4]: 30 min

Structure (SMILES): C=C(CC(=O)OC1CCCCC1)C(=O)OCC(=O)O [Example 91, 2-((4-(cyclohexyloxy)-2-methylene-4-oxobutanoyl)oxy)acetic acid]
- Emax (NRF2; [5]): 73%
- pEC50 (NRF2; [6]): 5.00
- CIint (μL min^−1 10^−6 cells) (hepatocytes [1]): 4 μL min^−1 10^−6 cells
- half-life at 10 μM [2]: 352 min
- CIint (μL min^−1 10^−6 cells) (hepatocytes [3]): 29 μL min^−1 10^−6 cells
- half-life at 10 μM [4]: 48 min

Structure (SMILES): C=C(CC(=O)OCCCCCC)C(=O)OCC(=O)O [Example 94, 2-((4-(hexyloxy)-2-methylene-4-oxobutanoyl)oxy)acetic acid]
- Emax (NRF2; [5]): 193%
- pEC50 (NRF2; [6]): 4.65
- CIint (μL min^−1 10^−6 cells) (hepatocytes [1]): 16 μL min^−1 10^−6 cells
- half-life at 10 μM [2]: 85 min
- CIint (μL min^−1 10^−6 cells) (hepatocytes [3]): 60 μL min^−1 10^−6 cells
- half-life at 10 μM [4]: 23 min

Structure (SMILES): C=C(CC(=O)OC1CC2(CCC2)C1)C(=O)OCC(=O)O [Example 96, 2-((2-methylene-4-oxo-4-(spiro[3.3]heptan-2-yloxy)butanoyl)oxy)acetic acid]
- Emax (NRF2; [5]): 180%
- pEC50 (NRF2; [6]): 4.67
- CIint (μL min^−1 10^−6 cells) (hepatocytes [1]): 11 μL min^−1 10^−6 cells
- half-life at 10 μM [2]: 126 min
- CIint (μL min^−1 10^−6 cells) (hepatocytes [3]): 112 μL min^−1 10^−6 cells
- half-life at 10 μM [4]: 12 min

Structure (SMILES): C=C(CC(=O)O[C@H](C)CCCCCC)C(=O)OCC(=O)O [Example 112, (R)-2-((2-methylene-4-(octan-2-yloxy)-4-oxobutanoyl)oxy)acetic acid]
- pEC50 (NRF2; [7]): 5.05
- Emax (NRF2; [8]): 173%
- Emax (NRF2; [5]): 173%
- pEC50 (NRF2; [6]): 5.05
- CIint (μL min^−1 10^−6 cells) (hepatocytes [1]): 65 μL min^−1 10^−6 cells
- half-life at 10 μM [2]: 25 min
- CIint (μL min^−1 10^−6 cells) (hepatocytes [3]): 255 μL min^−1 10^−6 cells
- half-life at 10 μM [4]: 13 min

Structure (SMILES): C=C(CC(=O)OC1C(C)(C)CC1(C)C)C(=O)OCC(=O)O [Example 169, 2-((2-methylene-4-oxo-4-(2,2,4,4-tetramethylcyclobutoxy)butanoyl)oxy) acetic acid]
- CIint (μL min^−1 10^−6 cells) (hepatocytes [1]): 5 μL min^−1 10^−6 cells
- half-life at 10 μM [2]: 268 min
- CIint (μL min^−1 10^−6 cells) (hepatocytes [3]): 38 μL min^−1 10^−6 cells
- half-life at 10 μM [4]: 34 min

Structure (SMILES): C=C(CC(=O)O[C@@H](CC)CCCCC)C(=O)OCC(=O)O [Example 170, (S)-2-(2-methylene-4-(octan-3-yloxy)-4-oxobutanoyloxy)acetic acid]
- CIint (μL min^−1 10^−6 cells) (hepatocytes [1]): 12 μL min^−1 10^−6 cells
- half-life at 10 μM [2]: 120 min
- CIint (μL min^−1 10^−6 cells) (hepatocytes [3]): 64 μL min^−1 10^−6 cells
- half-life at 10 μM [4]: 20 min

Structure (SMILES): C=C(CC(=O)O[C@H](CC)CCCCC)C(=O)OCC(=O)O [Example 178, (R)-2-(2-methylene-4-(octan-3-yloxy)-4-oxobutanoyloxy)acetic acid]
- Emax (NRF2; [5]): 188%
- pEC50 (NRF2; [6]): 4.84

Structure (SMILES): C=C(CC(=O)OC(C)(C)CCCCC)C(=O)OCC(=O)O [Example 193, 2-((2-methylene-4-((2-methylheptan-2-yl)oxy)-4-oxobutanoyl)oxy)acetic acid]
- CIint (μL min^−1 10^−6 cells) (hepatocytes [1]): 16 μL min^−1 10^−6 cells
- half-life at 10 μM [2]: 109 min
- CIint (μL min^−1 10^−6 cells) (hepatocytes [3]): 79 μL min^−1 10^−6 cells
- half-life at 10 μM [4]: 22 min

Structure (SMILES): COC(=O)/C=C/C(=O)OC [dimethyl fumarate, reference compound]
- pEC50 (NRF2; [7]): 5.25
- Emax (NRF2; [8]): 102%
- Emax (NRF2; [5]): 102%
- pEC50 (NRF2; [6]): 5.25

Structure (SMILES): C=C(CC(=O)OC)C(=O)OC [dimethyl itaconate, reference compound]
- pEC50 (NRF2; [7]): 4.67
- Emax (NRF2; [8]): 137%
- Emax (NRF2; [5]): 137%
- pEC50 (NRF2; [6]): 4.67
